Results on 19 molecules are retold here after paper PMC9213889 (Frontiers in Chemistry, 2022).

The structures appear in SMILES notation.

Series [1] concerns the target T1, α-amylase from hog pancreas (EC 3.2.1.1) (Sus scrofa, UniProt P00690).
T1 sequence (P00690 16-511): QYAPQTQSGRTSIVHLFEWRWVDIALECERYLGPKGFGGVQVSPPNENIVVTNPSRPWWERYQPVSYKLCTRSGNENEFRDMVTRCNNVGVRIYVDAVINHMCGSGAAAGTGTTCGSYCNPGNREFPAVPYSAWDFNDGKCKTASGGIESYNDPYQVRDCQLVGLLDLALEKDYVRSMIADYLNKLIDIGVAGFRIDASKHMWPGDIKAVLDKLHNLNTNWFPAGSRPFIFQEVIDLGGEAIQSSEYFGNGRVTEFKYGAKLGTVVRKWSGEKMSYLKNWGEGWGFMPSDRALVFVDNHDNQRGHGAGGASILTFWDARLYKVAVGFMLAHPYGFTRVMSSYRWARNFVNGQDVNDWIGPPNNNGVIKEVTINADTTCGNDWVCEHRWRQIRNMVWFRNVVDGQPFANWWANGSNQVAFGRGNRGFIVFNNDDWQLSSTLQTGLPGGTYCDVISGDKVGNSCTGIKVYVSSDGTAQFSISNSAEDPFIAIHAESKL
Nature of the series: α-amylase inhibition assay (starch, DNS, absorbance at 540 nm).
Procedure: All the compounds were dissolved in DMSO, and DMSO working concentration in the enzyme inhibition test was 5%.
Then, 100 μL starch solution (final concentration 0.5%) was added into the mixture and further incubated for 10 min. After 100 μL DNS (containing 1 M potassium sodium tartrate and 48 mM 3,5-dinitrosalicylic acid) was added, the mixture was boiled for 15 min. After diluting using 900 μL distilled water, the absorbance was measured at 540 nm. […] All experiments were carried out in quadruplicate.

For series [2], the target named is α-glucosidase from Saccharomyces cerevisiae (EC 3.2.1.20) (Saccharomyces cerevisiae, UniProt P53341). Nature of the series: biochemical. The conditions noted are these: for IC50: mean ± SD, quadruplicate, PBS pH 6.8, 37°C, 5% DMSO, read-out: α-glucosidase inhibition (IC50 μM). The series is classed as biochemical.
α-glucosidase from Saccharomyces cerevisiae (EC 3.2.1.20), sequence (P53341 whole entry): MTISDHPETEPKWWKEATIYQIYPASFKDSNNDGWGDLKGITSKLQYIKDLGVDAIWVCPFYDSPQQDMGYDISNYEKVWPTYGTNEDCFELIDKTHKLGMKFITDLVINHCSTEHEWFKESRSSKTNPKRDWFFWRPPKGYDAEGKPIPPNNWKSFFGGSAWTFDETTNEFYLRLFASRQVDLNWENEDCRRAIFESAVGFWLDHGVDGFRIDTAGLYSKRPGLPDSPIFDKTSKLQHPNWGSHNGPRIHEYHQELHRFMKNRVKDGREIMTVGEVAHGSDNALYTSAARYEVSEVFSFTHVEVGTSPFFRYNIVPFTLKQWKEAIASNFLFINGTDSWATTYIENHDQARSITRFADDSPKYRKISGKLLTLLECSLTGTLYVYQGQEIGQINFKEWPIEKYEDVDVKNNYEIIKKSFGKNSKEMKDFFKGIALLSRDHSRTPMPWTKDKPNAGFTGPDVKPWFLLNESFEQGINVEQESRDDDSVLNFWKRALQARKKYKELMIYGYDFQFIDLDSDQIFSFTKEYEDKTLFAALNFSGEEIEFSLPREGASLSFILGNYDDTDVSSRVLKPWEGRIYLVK
The subject of the next series is HepG2 cells. Nature of the series: Cell cytotoxicity assay, HepG2. The series is classed as cell-based. The conditions noted are these: under a concentration of 100 μM.
The next series concerns 3T3-L1 cells. Briefly: Cell cytotoxicity assay, 3T3-L1. The series is classed as cell-based. Conditions: under a concentration of 100 μM.
A further series deals with T2, α-glucosidase (Saccharomyces cerevisiae, UniProt P53341).
T2 construct: purchased Sigma-Aldrich
T2 sequence (P53341 whole entry): as above
Nature of the series: Inhibition kinetics assay against α-glucosidase. It is filed as biochemical. On the procedure:
The α-glucosidase inhibition assay of analogs 4a–4s was carried out as in previously reported methods, with minor modifications ([Xu et al., 2020]). Then, 10 μL α-glucosidase and 10 μL test sample (dissolved in DMSO) were added into 130 μL PBS (50 mM phosphate saline buffer, pH 6.8) and incubated for 10 min at 37°C. After adding 50 μL pNPG, the absorbance change of the mixture at 405 nm was monitored. Then, the percent inhibition was calculated ([Ademiluyi and Oboh, 2013]). All experiments were carried out in quadruplicate.
(§1) The inhibition kinetics of 4i and 4o against α-glucosidase and α-amylase, respectively, was investigated using a similar aforementioned inhibition assay method. The enzyme inhibitory kinetics was obtained by the plots of the enzymatic reaction rate vs. enzyme concentration with or without the inhibitor, and the substrate inhibitory kinetics was measured using the Lineweaver–Burk plot of the enzymatic reaction rate vs. substrate concentration with or without the inhibitor.

The next series has as its target T3, α-amylase (Sus scrofa, UniProt P00690).
T3 construct: α-amylase from hog pancreas (EC 3.2.1.1); purchased Sigma-Aldrich; host or cells: hog pancreas
T3 sequence (P00690 16-511): T1 sequence (P00690 16-511)
Briefly: Inhibition kinetics assay against α-amylase. It is filed as biochemical, hog. On the procedure:
All experiments were carried out in quadruplicate.
as §1

Setting [3] is: plots of enzymatic reaction rate vs. enzyme concentration pass through the origin.

The IC50 is the concentration that inhibits the measured activity by half. Regarding `CC1(C)CC[C@]2(C(=O)O)CC[C@]3(C)C(=CCC4[C@@]5(C)C/C(=C\c6ccccc6)[C@H](O)C(C)(C)C5CC[C@]43C)C2C1` (some centres unmarked) [Compound 4a], the IC50 in series [1] came out at 41.2 ± 2.99 µM; in series [2], 1.9 ± 0.31 µM.
The melting point is the temperature of the solid-liquid transition. `Cc1ccccc1/C=C1\C[C@@]2(C)C(CC[C@]3(C)C2CC=C2C4CC(C)(C)CC[C@]4(C(=O)O)CC[C@]23C)C(C)(C)[C@H]1O` (some centres unmarked) [Compound 4b] showed a melting point of 210 to 211 °C. Moreover, half-maximal inhibition in series [1] (IC50) was put at 19.8 ± 1.22 µM. Moreover, in series [2], the concentration for half-maximal inhibition (IC50) came to 0.61 ± 0.09 µM.
In turn, `Cc1cccc(/C=C2\C[C@@]3(C)C(CC[C@]4(C)C3CC=C3C5CC(C)(C)CC[C@]5(C(=O)O)CC[C@]34C)C(C)(C)[C@H]2O)c1` (some centres unmarked) [Compound 4c] came in with a melting point of 128 to 129 °C. Further, the midpoint of inhibition in series [1], the IC50, lay at 51.1 ± 2.55 µM. Further, the IC50 in series [2] is 0.86 ± 0.05 µM.
`Cc1ccc(/C=C2\C[C@@]3(C)C(CC[C@]4(C)C3CC=C3C5CC(C)(C)CC[C@]5(C(=O)O)CC[C@]34C)C(C)(C)[C@H]2O)cc1` (some centres unmarked) [Compound 4d]: the melting point lay within 146 to 147 °C. The molecule also came in with a half-inhibitory concentration (IC50) in series [1] of 62.2 ± 1.89 µM. The half-inhibitory concentration (IC50) in series [2] was 2.41 ± 0.08 µM.
The corresponding values for `COc1ccccc1/C=C1\C[C@@]2(C)C(CC[C@]3(C)C2CC=C2C4CC(C)(C)CC[C@]4(C(=O)O)CC[C@]23C)C(C)(C)[C@H]1O` (some centres unmarked) [Compound 4e] are 200 to 201 °C, 20.5 ± 2.29 µM and 1.92 ± 0.13 µM.
The corresponding values for `COc1cccc(/C=C2\C[C@@]3(C)C(CC[C@]4(C)C3CC=C3C5CC(C)(C)CC[C@]5(C(=O)O)CC[C@]34C)C(C)(C)[C@H]2O)c1` (some centres unmarked) [Compound 4f] are 200 to 201 °C, 60.3 ± 1.88 µM and 1.63 ± 0.1 µM.
For `COc1ccc(/C=C2\C[C@@]3(C)C(CC[C@]4(C)C3CC=C3C5CC(C)(C)CC[C@]5(C(=O)O)CC[C@]34C)C(C)(C)[C@H]2O)cc1` (some centres unmarked) [Compound 4g], in that order: 296 to 297 °C, 59.1 ± 1.98 µM and 3.96 ± 0.21 µM.
`CC1(C)CC[C@]2(C(=O)O)CC[C@]3(C)C(=CCC4[C@@]5(C)C/C(=C\c6ccccc6F)[C@H](O)C(C)(C)C5CC[C@]43C)C2C1` (some centres unmarked) [Compound 4h] showed a melting point of 165 to 166 °C. Besides, in series [1], the IC50 was 18.5 ± 1.39 µM. In addition, the half-inhibitory concentration (IC50) in series [2] was 0.83 ± 0.04 µM.
For the molecule `CC1(C)CC[C@]2(C(=O)O)CC[C@]3(C)C(=CCC4[C@@]5(C)C/C(=C\c6cccc(F)c6)[C@H](O)C(C)(C)C5CC[C@]43C)C2C1` (some centres unmarked) [Compound 4i], the melting point was in the range of 157 to 158 °C. In addition, the “Cell cytotoxicity against HepG2 cells” value in the series with HepG2 cells is recorded as “non-cytotoxic effect”. In addition, the “Cell cytotoxicity against 3T3-L1 cells” value with 3T3-L1 cells is “non-cytotoxic effect”. Moreover, the “Inhibition type against α-glucosidase” value on α-glucosidase (Lineweaver–Burk plots, lines intersect in the second quadrant) is reported as “mixed-type inhibitor”. Also, at α-glucosidase (setting [3]), the “Reversibility of inhibition on α-glucosidase” value was “reversible”. For the same molecule, half-maximal inhibition in series [1] (IC50) was put at 20.3 ± 2.18 µM. For the same molecule, in series [2], the “α-glucosidase inhibition, times stronger than acarbose” value is ~1,663 times and the IC50 amounted to 0.4 ± 0.02 µM.
Consider `CC1(C)CC[C@]2(C(=O)O)CC[C@]3(C)C(=CCC4[C@@]5(C)C/C(=C\c6ccc(F)cc6)[C@H](O)C(C)(C)C5CC[C@]43C)C2C1` (some centres unmarked) [Compound 4j], for which the melting point fell in the range of 226 to 227 °C. Moreover, half-maximal inhibition in series [1] (IC50) required 15.7 ± 1.53 µM. The IC50 in series [2] came to 1.23 ± 0.07 µM.
In turn, `CC1(C)CC[C@]2(C(=O)O)CC[C@]3(C)C(=CCC4[C@@]5(C)C/C(=C\c6ccccc6Cl)[C@H](O)C(C)(C)C5CC[C@]43C)C2C1` (some centres unmarked) [Compound 4k] came in with a melting point of 219 to 220 °C. In series [1], this molecule registered a half-inhibitory concentration (IC50) of 45.4 ± 2.16 µM. In addition, in series [2], the IC50 was 0.88 ± 0.04 µM.
The corresponding values for `CC1(C)CC[C@]2(C(=O)O)CC[C@]3(C)C(=CCC4[C@@]5(C)C/C(=C\c6cccc(Cl)c6)[C@H](O)C(C)(C)C5CC[C@]43C)C2C1` (some centres unmarked) [Compound 4l] are 242 to 243 °C, 19.4 ± 0.73 µM and 0.45 ± 0.02 µM.
The corresponding values for `CC1(C)CC[C@]2(C(=O)O)CC[C@]3(C)C(=CCC4[C@@]5(C)C/C(=C\c6ccc(Cl)cc6)[C@H](O)C(C)(C)C5CC[C@]43C)C2C1` (some centres unmarked) [Compound 4m] are 196 to 197 °C, 20.5 ± 1.09 µM and 1.73 ± 0.16 µM.
`CC1(C)CC[C@]2(C(=O)O)CC[C@]3(C)C(=CCC4[C@@]5(C)C/C(=C\c6ccccc6Br)[C@H](O)C(C)(C)C5CC[C@]43C)C2C1` (some centres unmarked) [Compound 4n] gave a melting point of 234 to 235 °C. It took 16.8 ± 1.04 µM to reach half-maximal inhibition in series [1] (IC50). Also, the concentration for half-maximal inhibition (IC50) in series [2] was found to be 0.72 ± 0.06 µM.
For the molecule `CC1(C)CCC2(C(=O)O)CCC3(C)C(=CCC4C5(C)CC(=Cc6cccc(Br)c6)C(O)C(C)(C)C5CCC43C)C2C1` (centres unmarked) [Compound 4o], the melting point is 197 to 198 °C. Besides, the “Inhibition type against α-amylase” value at α-amylase (Lineweaver–Burk plots, lines intersect in the first quadrant) is reported as “mixed-type inhibitor”. Besides, at α-amylase (setting [3]), the “Reversibility of inhibition on α-amylase” value is “reversible”. The “Cell cytotoxicity against HepG2 cells” value with HepG2 cells is listed as “non-cytotoxic effect”. In addition, the “Cell cytotoxicity against 3T3-L1 cells” value in the series with 3T3-L1 cells is on record as “non-cytotoxic effect”. The molecule further showed a half-inhibitory concentration (IC50) in series [1] of 9.59 ± 0.58 µM. The IC50 in series [2] was found to be 0.52 ± 0.02 µM.
Turning to `CC1(C)CC[C@]2(C(=O)O)CC[C@]3(C)C(=CCC4[C@@]5(C)C/C(=C\c6ccc(Br)cc6)[C@H](O)C(C)(C)C5CC[C@]43C)C2C1` (some centres unmarked) [Compound 4p], the melting point fell in the range of 224 to 225 °C. Besides, in series [1], 19.5 ± 1.85 µM corresponded to half-maximal inhibition (IC50). For the same molecule, in series [2], the IC50 was found to be 1.18 ± 0.14 µM.
For the molecule `CC1(C)CC[C@]2(C(=O)O)CC[C@]3(C)C(=CCC4[C@@]5(C)C/C(=C\c6ccccc6[N+](=O)[O-])[C@H](O)C(C)(C)C5CC[C@]43C)C2C1` (some centres unmarked) [Compound 4q], the melting point was 197 to 198 °C. Also, the IC50 in series [1] is 20.2 ± 1.2 µM. In series [2], the IC50 turned out to be 1.17 ± 0.1 µM.
The corresponding values for `CC1(C)CC[C@]2(C(=O)O)CC[C@]3(C)C(=CCC4[C@@]5(C)C/C(=C\c6cccc([N+](=O)[O-])c6)[C@H](O)C(C)(C)C5CC[C@]43C)C2C1` (some centres unmarked) [Compound 4r] are 191 to 192 °C, 20.8 ± 1.88 µM and 1.08 ± 0.04 µM.
For `CC1(C)CC[C@]2(C(=O)O)CC[C@]3(C)C(=CCC4[C@@]5(C)C/C(=C\c6ccc([N+](=O)[O-])cc6)[C@H](O)C(C)(C)C5CC[C@]43C)C2C1` (some centres unmarked) [Compound 4s], in that order: 219 to 220 °C, 55.6 ± 2.52 µM and 1.22 ± 0.14 µM.
